Measured values as given in PubChem BioAssay (NCI).
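Briefly, cells in 96-well plates were exposed to five compound concentrations for 48 h, and endpoints were estimated by linear interpolation. Abbreviation: GI50, concentration required for 50% inhibition of growth. Definition used: TGI = concentration required for complete inhibition of growth.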

What was measured:
Test in all cases: DTP human tumour cell line panel, 48 h
[1] = system: A549 NSCLC
[2] = system: KM12 colon
[3] = system: 786-0 renal
[4] = system: EKVX NSCLC
[5] = system: SF-539 CNS
[6] = system: M14 melanoma
[7] = system: SK-OV-3 ovarian
[8] = system: RPMI-8226 leukemia
[9] = system: DU-145 prostate
[10] = system: MOLT-4 leukemia
[11] = system: ACHN renal
[12] = system: NCI-H522 lung
[13] = system: MDA-MB-231 breast
[14] = system: TK-10 renal
[15] = system: BT-549 breast
[16] = system: OVCAR-8 ovarian
[17] = system: NCI/ADR-RES ovarian
[18] = system: HOP-92 NSCLC
[19] = system: NCI-H23 lung
[20] = system: OVCAR-4 ovarian
[21] = system: SNB-75 CNS
[22] = system: NCI-H226 lung
[23] = system: SF-268 CNS
[24] = system: HCT-15 colon
[25] = system: SF-295 CNS
[26] = system: CAKI-1 renal
[27] = system: UO-31 renal
[28] = system: SK-MEL-2 melanoma
[29] = system: PC-3 prostate
[30] = system: SR leukemia
[31] = system: HL-60(TB) leukemia
[32] = system: MALME-3M melanoma
[33] = system: HT29 colon
[34] = system: NCI-H460 lung
[35] = system: HCT-116 colon
[36] = system: COLO 205 colon
[37] = system: HOP-62 NSCLC
[38] = system: OVCAR-5 ovarian
[39] = system: SNB-19 CNS
[40] = system: SW-620 colon
[41] = system: MDA-MB-435
[42] = system: SK-MEL-28 melanoma
[43] = system: RXF 393 renal
[44] = system: OVCAR-3 ovarian
[45] = system: HCC-2998 colon
[46] = system: A498 renal
[47] = system: UACC-62 melanoma
[48] = system: U251 CNS
[49] = system: MCF7 breast
[50] = system: SK-MEL-5 melanoma
[51] = system: IGROV1 ovarian
[52] = system: K-562 leukemia
[53] = system: HS 578T breast
[54] = system: UACC-257 melanoma
[55] = system: SN12C renal

CC(=O)Nc1ccc(S(=O)(=O)/N=c2/sc(S(N)(=O)=O)nn2C)cc1
TGI [1]: > 100 µM
TGI [2]: > 100 µM
TGI [3]: > 100 µM
TGI [4]: > 100 µM
TGI [5]: > 100 µM
TGI [6]: > 100 µM
TGI [7]: > 100 µM
TGI [8]: > 100 µM
TGI [9]: > 100 µM
TGI [10]: > 100 µM
TGI [11]: > 100 µM
TGI [12]: > 100 µM
TGI [13]: > 100 µM
TGI [14]: > 100 µM
TGI [15]: > 100 µM
TGI [16]: > 100 µM
TGI [17]: > 100 µM
TGI [18]: > 100 µM
TGI [19]: > 100 µM
TGI [20]: > 100 µM
TGI [21]: > 100 µM
TGI [22]: > 100 µM
TGI [23]: > 100 µM
TGI [24]: > 100 µM
TGI [25]: > 100 µM
TGI [26]: > 100 µM
TGI [27]: > 100 µM
TGI [28]: > 100 µM
TGI [29]: > 100 µM
TGI [30]: > 100 µM
TGI [31]: > 100 µM
TGI [32]: > 100 µM
TGI [33]: > 100 µM
TGI [34]: > 100 µM
TGI [35]: > 100 µM
TGI [36]: > 100 µM
TGI [37]: > 100 µM
TGI [38]: > 100 µM
TGI [39]: > 100 µM
TGI [40]: > 100 µM
TGI [41]: > 100 µM
TGI [42]: > 100 µM
TGI [43]: > 100 µM
TGI [44]: > 100 µM
TGI [45]: > 100 µM
TGI [46]: > 100 µM
TGI [47]: > 100 µM
TGI [48]: > 100 µM

COc1ccc(OC)c(-c2cc(-c3ccc(Cl)cc3)nn2-c2ccc(S(N)(=O)=O)cc2)c1
GI50 [1]: 7.84 µM
TGI [1]: 51.9 µM
GI50 [2]: 5.16 µM
TGI [2]: 21.2 µM
GI50 [3]: 13.2 µM
TGI [3]: 27.1 µM
GI50 [4]: 11.9 µM
TGI [4]: 27.5 µM
GI50 [5]: 17.6 µM
TGI [5]: 34.3 µM
GI50 [49]: 3.9 µM
TGI [49]: 26.2 µM
GI50 [6]: 7.73 µM
TGI [6]: 19.7 µM
GI50 [50]: 14.5 µM
TGI [50]: 35.4 µM
GI50 [8]: 1.72 µM
TGI [8]: 3.72 µM
GI50 [9]: 12.1 µM
TGI [9]: 25.9 µM
GI50 [10]: 3.52 µM
TGI [10]: > 100 µM
GI50 [51]: 21.6 µM
TGI [51]: > 100 µM
GI50 [12]: 7.99 µM
TGI [12]: 45.3 µM
GI50 [13]: 6.05 µM
TGI [13]: 19 µM
GI50 [14]: 6.56 µM
TGI [14]: 22.7 µM
GI50 [15]: 12.4 µM
TGI [15]: 29.4 µM
GI50 [16]: 11.3 µM
TGI [16]: 34.6 µM
GI50 [17]: 6.54 µM
TGI [17]: 22.2 µM
GI50 [18]: 19.2 µM
TGI [18]: 62.5 µM
GI50 [19]: 13.4 µM
TGI [19]: 28.3 µM
GI50 [22]: 11.4 µM
TGI [22]: 26.1 µM
GI50 [23]: 13.9 µM
TGI [23]: 32.9 µM
GI50 [24]: 2.84 µM
TGI [24]: 10.7 µM
GI50 [25]: 17.2 µM
TGI [25]: 44.4 µM
GI50 [26]: 11.2 µM
TGI [26]: 29.3 µM
GI50 [27]: 21.8 µM
TGI [27]: > 100 µM
GI50 [28]: 35.1 µM
TGI [28]: > 100 µM
GI50 [29]: 3.62 µM
TGI [29]: 15.7 µM
GI50 [31]: 14.3 µM
TGI [31]: > 100 µM
GI50 [52]: 2.07 µM
TGI [52]: 4.87 µM
GI50 [34]: 10.6 µM
TGI [34]: 93 µM
GI50 [38]: 12.8 µM
TGI [38]: 28.7 µM
GI50 [53]: 21.9 µM
TGI [53]: 63.1 µM
GI50 [40]: 4.29 µM
TGI [40]: > 100 µM
GI50 [41]: 18.2 µM
TGI [41]: 43.9 µM
GI50 [44]: 22.1 µM
TGI [44]: 39.8 µM
GI50 [45]: 7.51 µM
TGI [45]: 21.6 µM
GI50 [54]: 3.98 µM
TGI [54]: 16.4 µM
GI50 [46]: 13.9 µM
TGI [46]: 29.7 µM
GI50 [55]: 14.5 µM
TGI [55]: 28.2 µM
GI50 [47]: 2.98 µM
TGI [47]: 12.1 µM
